The text below walks through data of patent US20240166646A1, “1H-PYRROLO[2,3-B]PYRIDINE DERIVATIVES AS BCL-2 INHIBITORS FOR THE TREATMENT OF NEOPLASTIC AND AUTOIMMUNE DISEASES” (Newave Pharmaceutical Inc., priority 2020, published 2024).

For one series, the system named is SCLC H146 cell line. Particulars: read-out: IC50 against SCLC H146 cell line; cited from earlier work.
In another series the test system is H345 xenograft. The note with it: 100 mg/kg/day, H345 xenograft model; cited from earlier work.
A further series has as its target Bcl-w (Homo sapiens (Human), UniProt Q92843). Particulars: cited from earlier work.
Another series has as its system circulating platelets. Particulars: clinical trial, patients; cited from earlier work.
Series [1] deals with xenograft models of small-cell lung cancer and acute lymphoblastic leukemia. The note with it: oral administration, alone; cited from earlier work.
The conditions of series [2]: in vivo; cited from earlier work.
The test system of another series is established tumors. The note with it: mouse, in vivo; cited from earlier work.
The conditions of series [3]: cited from earlier work.
For the next series, the system named is RS4; 11 cells. The note with it: cited from earlier work.
Series [4] concerns CLL who have 17p deletion. Particulars: Human Phase I and II data; cited from earlier work.
The test system of a further series is DoHH2 xenograft. Particulars: single agent or in combination with Bendamustine and other agents; cited from earlier work.
The test system of series [5] is BCL-2-dependent acute lymphoblastic leukemia (ALL) cell line RS4; 11 with G101V mutation. Put plainly: In vitro anti-proliferation assay (ATPlite) in RS4; 11 with G101V mutation. The format is cell-based. The note with it: RS4-11; about 72 hours incubation, medium with 5% FBS or 10% normal human serum, ATPlite luminescence. Summed up: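 About 1×10^4 cells per well exposed to a compound dose range for about 72 h in medium with 5% FBS or 10% normal human serum. ATP content read by ATPlite luminescence after lysis. IC50 derived from dose-response.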

The next series addresses Mcl-1 (Homo sapiens (Human), UniProt Q07820). Particulars: cited from earlier work.
The next series deals with RS4; 11 xenografts. The note with it: single dose of 100 mg/kg; cited from earlier work.
For another series, the system named is Granta-519 xenograft. Particulars: single agent or in combination with Bendamustine and other agents; cited from earlier work.
The next series concerns CLL. The note with it: average; read-out: average EC50, apoptosis in CLL; cited from earlier work.
For a further series, the target named is Bcl-2 (Homo sapiens (Human), UniProt P10415). The series can be described thus: Bcl-2 competition binding (fluorescence polarization) assay. Particulars: fluorescein labeled BH3 peptide 15 nM, Bcl-2 protein 30 nM, 3 hours of incubation at room temperature. Summed up:
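Fluorescence polarization competition of 15 nM labeled 23-mer BH3 peptide with 30 nM purified Bcl-2, in 20 mM Hepes pH 7.0, 50 mM KCl, 5 mM MgCl2, 20 mM Na2MoO4, 0.1 mg/ml bovine gamma globulin, 0.01% NP40. Compounds 20 μM to 2 nM final; mP read after 3 h at room temperature, background-subtracted. IC50 from sigmoidal dose-response fit.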

Bcl-2, sequence (P10415 whole entry): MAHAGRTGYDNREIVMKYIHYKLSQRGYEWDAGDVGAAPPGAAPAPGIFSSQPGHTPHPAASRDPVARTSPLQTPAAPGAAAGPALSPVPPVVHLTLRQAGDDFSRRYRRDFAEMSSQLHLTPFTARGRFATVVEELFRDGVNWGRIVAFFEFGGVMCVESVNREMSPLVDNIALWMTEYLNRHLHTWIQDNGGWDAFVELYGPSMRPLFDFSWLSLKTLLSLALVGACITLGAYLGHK
Mcl-1, sequence (Q07820 whole entry): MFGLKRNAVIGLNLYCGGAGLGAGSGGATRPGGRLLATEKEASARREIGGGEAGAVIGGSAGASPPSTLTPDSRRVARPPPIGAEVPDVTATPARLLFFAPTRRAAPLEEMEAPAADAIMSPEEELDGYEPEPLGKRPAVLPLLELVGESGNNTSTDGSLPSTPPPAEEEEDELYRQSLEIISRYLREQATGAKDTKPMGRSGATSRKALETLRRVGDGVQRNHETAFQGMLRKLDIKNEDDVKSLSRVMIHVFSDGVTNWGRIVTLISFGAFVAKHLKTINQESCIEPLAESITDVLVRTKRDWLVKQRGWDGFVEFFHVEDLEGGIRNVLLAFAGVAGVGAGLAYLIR
Bcl-w, sequence (Q92843 whole entry): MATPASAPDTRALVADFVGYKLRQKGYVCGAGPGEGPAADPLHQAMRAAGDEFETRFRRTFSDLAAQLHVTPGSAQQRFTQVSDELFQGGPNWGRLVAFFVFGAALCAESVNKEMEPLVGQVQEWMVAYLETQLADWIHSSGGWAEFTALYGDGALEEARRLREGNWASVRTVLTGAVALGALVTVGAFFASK

`CC1(C)CCC(c2ccc(Cl)cc2)=C(CN2CCN(c3ccc(C(=O)NS(=O)(=O)c4ccc(N[C@H](CCN5CCOCC5)CSc5ccccc5)c(S(=O)(=O)C(F)(F)F)c4)cc3)CC2)C1` [ABT-263]: the IC50 in the series with SCLC H146 cell line was 110 nM. In the series with H345 xenograft, the TGI is 80% and the “treated tumors indicating at least a 50% reduction in tumor volume” value is listed as 20%. Further, the Ki at Bcl-w was 1 nM. The “effect on number of circulating platelets” value in the series with circulating platelets is “rapid, concentration-dependent decrease in the number of circulating platelets”. The tumor regression entry in series [1] is “complete tumor regressions”. The oral bioavailability result in series [2] is “orally bioavailable”.
For `CN(C)CC[C@H](CSc1ccccc1)Nc1ccc(S(=O)(=O)NC(=O)c2ccc(N3CCN(Cc4ccccc4-c4ccc(Cl)cc4)CC3)cc2)cc1[N+](=O)[O-]` [ABT-737], the “efficacy in animal models” value in the series on established tumors was “improves survival, causes regression of established tumors, and produces cures in a high percentage of the mice”. In [3], the aqueous solubility entry is on record as “low aqueous solubility”. The oral bioavailability result in series [2] was “not orally bioavailable”.
Regarding `CC1(C)CCC(CN2CCN(c3ccc(C(=O)NS(=O)(=O)c4ccc(NCC5CCOCC5)c([N+](=O)[O-])c4)c(Oc4cnc5[nH]ccc5c4)c3)CC2)=C(c2ccc(Cl)cc2)C1` [ABT-199], the EC50 in the series on RS4; 11 cells was 8 nM. Also, the “apoptosis in RS4; 11 cells” value with RS4; 11 cells (cytochrome c release, caspase activation, accumulation of sub-G0/G1 DNA) is given as “induces a rapid apoptosis”. In series [4], the clinical efficacy result is given as “highly efficacious”. Further, in the series on DoHH2 xenograft, the “xenograft growth DoHH2” value is reported as “inhibits xenograft growth”. In [5], this compound showed an IC50 of 1200 nM. For the same compound, at Mcl-1, the “activity to Mcl-1” value is reported as “no activity”. In addition, in the series on RS4; 11 xenografts, the “maximal tumor growth inhibition” value was 95% and the tumor growth delay is 152%. Also, the “xenograft growth Granta-519” value in the series on Granta-519 xenograft was “inhibits xenograft growth”. Besides, the concentration for a half-maximal effect (EC50) in the series with CLL is 3 nM.
Turning to `Cc1ccccc1[C@@H]1COCCCN1C1CC2(CCN(c3ccc(C(=O)NS(=O)(=O)c4ccc(NCC5CCOCC5)c([N+](=O)[O-])c4)c(N4c5cc6cc[nH]c6nc5O[C@@H]5COC[C@H]54)c3)CC2)C1` [Example 65, N-((3-nitro-4-(((tetrahydro-2H-pyran-4-yl)methyl)amino)phenyl)sulfonyl)-2-((5aR,8aS)-5a,6,8,8a-tetrahydrofuro[3,4-b]pyrrolo[3′,2′:5,6]pyrido[3,2-e][1,4]oxazin-5(1H)-yl)-4-(2-((R)-3-(o-tolyl)-1,4-oxazepan-4-yl)-7-azaspiro[3.5]nonan-7-yl)benzamide], the IC50 in [5] was over 1000 nM; at Bcl-2 it was 0.425 nM.
In the same order, the values of `CC(C)Oc1ccccc1[C@@H]1CCCN1C1CC2(CCN(c3ccc(C(=O)NS(=O)(=O)c4ccc(NCC5CCOCC5)c([N+](=O)[O-])c4)c(N4c5cc6cc[nH]c6nc5O[C@@H]5COC[C@@H]54)c3)CC2)C1` [Example 55, 4-(2-((S)-2-(2-isopropoxyphenyl)pyrrolidin-1-yl)-7-azaspiro[3.5]nonan-7-yl)-N-((3-nitro-4-(((tetrahydro-2H-pyran-4-yl)methyl)amino)phenyl)sulfonyl)-2-((5aS,8aS)-5a,6,8,8a-tetrahydrofuro[3,4-b]pyrrolo[3′,2′:5,6]pyrido[3,2-e][1,4]oxazin-5(1H)-yl)benzamide] are 392 nM and 0.608 nM.
